Results reported in patent publication US8309766B2 (Obschestvo S. Organichennoi Otvetstvennostiyu …, priority 2005, dated 2012).
Like-named read-outs stand apart in the source and are kept apart here.

Columns and labels:
[1] = tested on: "acetic contortions" in mice; experiment: Analgetic activity on the model "acetic contortions"; type: in vivo, white mongrel mice
Procedure: The tests were conducted on males of white mongrel mice weighing 22-24 grams. The specific pain response (“contortions”) were elicited by intraperitoneal administration to mice of 0.75% acetic acid solution. The following signs were taken into consideration: the number of seizure contractions of abdominal muscles accompanied by stretching the hind limbs and sagging the back. Analgetic effect was assessed by decrease in the number of contortions in animals in percent to the control for 15 minutes post administration of acetic acid. The technique of the tests is disclosed in Koster R., Anderson M., de Beer B.//Fed. Proc. 1959. V. 18. P. 412. Compounds under testing were administered intraperitoneally (using a probe) at a dose 10 μg/kg 60 minutes prior to injection of the acid. Diclofenac (10 mg/kg) was used as a reference drug. Analgetic effect was calculated according to the formula: […]
wherein Ck is the number of contortions in the control group,
Co is the number of contortions in the test group.

[2] = tested on: "hot plate" test in mice; experiment: Analgetic activity on the model "hot plate"; type: in vivo, white mongrel mice; conditions: for response vs control in vivo at 10 mg/kg / change in vivo at 10 mg/kg / change in vivo at 200 mg/kg / response vs control in vivo at 200 mg/kg: Mus musculus; for response vs control in vivo at 10 mg/kg / Latent time of NT (%): percent of background; for response vs control in vivo at 10 mg/kg / response vs control in vivo at 200 mg/kg: read-out: Latent time of NT (%); for change in vivo at 10 mg/kg / change in vivo at 200 mg/kg: read-out: Analgesia (%)
Procedure: The tests were conducted on males of white mongrel mice weighing 22-24 grams. The animals were individually placed on a hot plate (manufactured by the firm “Ugo Basile”), a temperature of which remained constant and was equal to 55° C. The following first manifestations of pain reaction were recorded: licking paws, jumping up prior to administration of a substance (background parameters) and 0.5, 1, 2, 3 and 4 hours post administration of a substance. Substances were administered […] (using a probe). A weighed amount of a substance was thoroughly mixed in 0.1 ml Tween 80 until a solution was obtained, then normal saline was added up to a volume of 0.5 ml. Average latent time of nociception threshold (NT) was calculated in every group. The results obtained were expressed in percent of the background values. Analgetic effect (in %) was calculated according to the formula: A−100%=X, wherein A is a background parameter; X is analgetic effect (in %)
A is (time 0.5 to 4 hours post administration×100%): background time
As reference drugs, Analgin (150 mg/kg), Paracetamol (200 mg/kg), Ketorol (10 mg/kg), were used.

[3] = Mus musculus, ip, 0.25 h, dose 10 mg/kg (table title), read-out: Analgetic effect (%)
[4] = Mus musculus, ip, 0.25 h, dose 10 mg/kg (table title), read-out: C, % to the control
[5] = dose 10 mg/kg (table title), 60 minutes prior to acetic acid
[6] = 10 mg/kg, 30 minutes post administration
[7] = 10 mg/kg, 60 minutes post administration
[8] = 10 mg/kg, 120 minutes post administration
[9] = 0.5 h, Paracetamol 200 mg/kg, 30 minutes
[10] = 1 h, Paracetamol 200 mg/kg, 60 minutes
[11] = 2 h, Paracetamol 200 mg/kg, 120 minutes

| SMILES | inhibition in vivo at 10 mg/kg [1, 3] [%] | response vs control in vivo at 10 mg/kg [1, 4] [%] | C ± m (the number of contortions for 15 minutes) [1, 5] | latent time of nociception threshold, M ± m [2, 6] [s] | latent time of nociception threshold, M ± m [2, 7] [s] | latent time of nociception threshold, M ± m [2, 8] [s] | response vs control in vivo at 10 mg/kg ([2]; 0.5 h, 10 mg/kg, 30 minutes) [%] | change in vivo at 10 mg/kg ([2]; 0.5 h, 10 mg/kg, 30 minutes) [%] | response vs control in vivo at 10 mg/kg ([2]; 1 h, 10 mg/kg, 60 minutes) [%] | change in vivo at 10 mg/kg ([2]; 1 h, 10 mg/kg, 60 minutes) [%] | response vs control in vivo at 10 mg/kg ([2]; 2 h, 10 mg/kg, 120 minutes) [%] | change in vivo at 10 mg/kg ([2]; 2 h, 10 mg/kg, 120 minutes) [%] | also measured |
| --- | --- | --- | --- | --- | --- | --- | --- | --- | --- | --- | --- | --- | --- |
| O=C(O)Cc1ccccc1Nc1c(Cl)cccc1Cl [Diclofenac, reference compound] |  |  |  |  |  |  |  |  |  |  |  |  | C ± m (the number of contortions for 15 minutes) ([1]; Diclofenac 10 μg/kg [sic]): 12.9 ± 2.13 |
| COC(=O)C(Cc1ccccc1)NC(=O)Cc1ccc(O)cc1 (stereo not shown) [Compound V, p-hydroxyphenylacetylphenylalanine methyl ester] | 39.3 | 60.7 | 16.2 ± 2.6 | 4.85 ± 0.39 | 5.9 ± 0.81 | 6.58 ± 0.72 | 130 | 29.7 | 158 | 57.8 | 176 | 75.9 |  |
| CC(=O)N[C@@H](Cc1ccc(O)cc1)C(=O)NCCc1ccc(O)cc1 [Compound XXIX, acetyltyrosyltyramine] | 42.9 | 57.1 | 15.7 ± 1.9 | 6.3 ± 1.2 | 7.2 ± 0.8 | 8.0 ± 1.0 | 197 | 197 | 225 | 125 | 250 | 150 |  |
| COC(=O)[C@H](Cc1ccccc1)NC(=O)CCc1ccc(O)cc1 [Compound XIII, 3-(p-hydroxyphenyl)-propionylphenylalanine methyl ester] | 48.4 | 51.6 | 14.6 ± 1.8 | 5.9 ± 0.3 | 6.7 ± 0.7 | 6.8 ± 0.3 | 107 | 7.3 | 122 | 21.8 | 124 | 23.6 |  |
| COC(=O)C(Cc1ccc(O)cc1)NC(=O)Cc1ccc(O)cc1 (stereo not shown) [Compound IV, p-hydroxyphenylacetyltyrosine methyl ester] | 22.1 | 77.9 | 20.8 ± 1.9 | 5.24 ± 0.88 | 5.54 ± 0.32 | 5.93 ± 0.59 | 104 | 4.2 | 110 | 10.1 | 118 | 17.9 |  |
| CC(=O)Nc1ccc(O)cc1 [Paracetamol, reference compound] |  |  |  |  |  |  |  |  |  |  |  |  | change in vivo at 200 mg/kg [2, 9]: 139%; response vs control in vivo at 200 mg/kg [2, 9]: 239%; change in vivo at 200 mg/kg [2, 10]: 58%; response vs control in vivo at 200 mg/kg [2, 10]: 158%; change in vivo at 200 mg/kg [2, 11]: 92%; response vs control in vivo at 200 mg/kg [2, 11]: 192%; latent time of nociception threshold, M ± m ([2]; Paracetamol 200 mg/kg, 30 minutes): 9.44 ± 1.3 s; latent time of nociception threshold, M ± m ([2]; Paracetamol 200 mg/kg, 60 minutes): 6.24 ± 0.82 s; latent time of nociception threshold, M ± m ([2]; Paracetamol 200 mg/kg, 120 minutes): 7.6 ± 1.15 s |
| CC(=O)N[C@@H](Cc1ccc(O)cc1)C(=O)NCCc1ccccc1 [Compound XXVIII, acetyltyrosylphenylethylamine] | 42.1 | 57.9 | 15.9 ± 2.4 | 9.2 ± 1.8 | 8.1 ± 1.0 | 11.6 ± 2.5 | 192 | 91.7 | 169 | 68.8 | 242 | 142 |  |
| O=C(Cc1ccccc1)NCCc1ccc(O)cc1 [Compound VI, phenylacetyltyramine] | 25.5 | 74.5 | 21.1 ± 1.8 | 7.8 ± 0.8 | 8.3 ± 1.0 | 6.8 ± 0.5 | 132 | 32.2 | 141 | 40.7 | 115 | 15.3 |  |
| O=C(CCc1ccccc1)N[C@@H](Cc1ccc(O)cc1)C(=O)OCc1ccccc1 [Compound XXX, 3-phenylproponyltyrosine benzyl ester] |  |  | 11.9 ± 1.7 | 6.9 ± 0.8 | 9.0 ± 0.9 | 9.1 ± 1.4 |  |  |  |  |  |  | Analgetic effect, % ([1]; dose 10 mg/kg (table title)): 36.1%; C, % to the control ([1]; dose 10 mg/kg (table title)): 63.9%; Analgesia (%) ([2]; 10 mg/kg, 30 minutes): 68.3%; Latent time of NT (%) ([2]; 10 mg/kg, 30 minutes): 168.3%; Analgesia (%) ([2]; 10 mg/kg, 60 minutes): 113.8%; Latent time of NT (%) ([2]; 10 mg/kg, 60 minutes): 213.8%; Analgesia (%) ([2]; 10 mg/kg, 120 minutes): 121.9%; Latent time of NT (%) ([2]; 10 mg/kg, 120 minutes): 221.9% |
| O=C(Cc1ccc(O)cc1)NCCc1ccc(O)cc1 [Compound VII, p-hydroxyphenylacetyltyramine] |  |  |  |  | 6.9 ± 0.72 | 8.2 ± 0.94 |  |  | 134 | 34.5 | 159 | 58.9 |  |
| O=C(O)Cc1ccccc1Nc1c(Cl)cccc1Cl [Voltaren, reference compound] |  |  |  |  |  |  |  |  |  |  |  |  | inhibition in vivo at 0.008 mg/kg ([1]; Mus musculus, ip, 0.25 h, Voltaren 8 μg/kg, read-out: Analgetic effect (%)): 44.5%; response vs control in vivo at 0.008 mg/kg ([1]; Mus musculus, ip, 0.25 h, Voltaren 8 μg/kg, read-out: C, % to the control): 55.5%; C ± m (the number of contortions for 15 minutes) ([1]; Voltaren 8 μg/kg): 15.8 ± 2.6 |
| O=C(Cc1ccc(O)cc1)NC(Cc1ccc(O)cc1)C(=O)O (stereo not shown) [Compound II, p-hydroxyphenylacetyltyrosine] | 24.8 | 75.2 | 24.2 ± 1.9 | 6.0 ± 0.6 | 6.1 ± 0.8 | 7.3 ± 0.6 | 176 | 76.5 | 179 | 79.4 | 215 | 115 |  |
